Test: Phosphate binding test: polymer stirred in phosphate containing solution at pH 7 for 3 hours
Experimental: Candidate polymers were tested by stirring them in a phosphate containing solution at pH 7 for 3 hours. The solution was designed to mimic the conditions present in the small intestine.
The pH was adjusted to pH 7, once at the start of the test and again at the end of the test, using either aqueous NaOH or HCl. After 3 hours the polymer was filtered off and the residual phosphate concentration in the test solution was determined spectrophotometrically. The difference between the initial phosphate concentration and the final concentration was used to determine the amount of phosphate bound to the polymer.

| Compound | Phosphate Bound (pH 7) [meq/g] | Phosphate Bound (Table 2, other materials, pH 7, 3 hours, residual solution phosphate ~5 mM) [meq/g] |
| --- | --- | --- |
| [Ca+2].[Cl-].[Cl-] [Calcium Chloride] | 4.0 | – |
| CC(O)C(=O)[O-].CC(O)C(=O)[O-].[Ca+2] (centres unmarked) [Calcium Lactate] | – | 2.4 |

— patent US20090226392A1, “Phosphate-Binding Polymers for Oral Administration” (priority 1993, published 2009)
